Assay results published in US4767624A, “Decubital remedy” (priority 1985, dated 1988).
Where two headings read alike, the source gives them in different places.

How the values were obtained:
[1] = test system: skin; experiment: Primary cutaneous irritation; format: in vivo
[2] = test system: skin; experiment: Cumulative irritation; format: in vivo; conditions: 1% in squalane
[3] = Blepharo-irritation; format: in vivo; conditions: 1% in squalane
[4] = Phototoxicity; format: in vivo; conditions: 1% and 10% in squalane
[5] = Challenge (Adjuvante & patch method); format: in vivo; conditions: induction 5% acetone
Source text: Challenge Induction: 5% acetone
(Adjuvante & patch method)

[6] = Optical challenge (Adjuvante & strip method); format: in vivo; conditions: induction 10% acetone
Source text: |(Adjuvante & strip method)

[7] = test system: skin; experiment: Patch test; format: in vivo; conditions: 1% in squalane
[8] = test system: Wistar rats; experiment: Subacute oral toxicity, rats; format: in vivo; conditions: oral, 40, 200 and 1,000 mg/kg/day, 5 weeks
Procedure: (§1) Ubidecarenone was continuously and orally administered to male and female Wistar rats at doses of 40, 200 and 1,000 mg/kg/day for 5 weeks and to male and female rabbits at doses of 60 and 600 mg/kg/day for 23 days.

[9] = test system: rabbits; experiment: Subacute oral toxicity, rabbits; format: in vivo; conditions: 60 and 600 mg/kg/day, 23 days
Procedure: as §1

[10] = Stability upon cutaneous administration; format: physicochemical
[11] = cited from earlier work
[12] = test system: radiation dermatitis or radiation ulcers; conditions: previous trial use, publications (1) and (2); cited from earlier work
[13] = test system: heart muscle; conditions: ischemic state; cited from earlier work

## COC1=C(OC)C(=O)C(C/C=C(\C)CC/C=C(\C)CC/C=C(\C)CC/C=C(\C)CC/C=C(\C)CC/C=C(\C)CC/C=C(\C)CC/C=C(\C)CC/C=C(\C)CCC=C(C)C)=C(C)C1=O [Ubidecarenone]
[1]; 1% in squalane
  Primary cutaneous irritation: 0.1
  Primary cutaneous irritation, conclusion: low skin irritation
[1]; cutaneous administration, summary of Table 1
  irritation to the skin: low irritation to the skin
[2]
  Cumulative irritation: 0.3
  Cumulative irritation, conclusion: low skin irritation
[3]
  Blepharo-irritation, conclusion: low blepharo-irritation
[4]
  Phototoxicity, conclusion: low phototoxicity
[5]; 1% in acetone
  Challenge: 0/10
[5]; 5% and 1% in acetone
  Challenge, conclusion: low challenge
[5]; 5% in acetone
  Challenge: 0/10
[6]; 0.5% in acetone
  Optical challenge: 0/5
[6]; 0.5-10% in acetone
  Optical challenge, conclusion: low optical challenge
[6]; 1% in acetone
  Optical challenge: 0/5
[6]; 2% in acetone
  Optical challenge: 0/5
[6]; 5% in acetone
  Optical challenge: 0/5
[6]; 10% in acetone
  Optical challenge: 0/5
[7]
  Patch test: 0/54
  Patch test, conclusion: low skin irritation
[8]
  difference from controls in general conditions, blood test, urine test and morphological observation: Neither rats nor rabbits developed any difference compared with their respective controls
[9]
  difference from controls in general conditions, blood test, urine test and morphological observation: Neither rats nor rabbits developed any difference compared with their respective controls
[10]
  stability upon cutaneous administration: good stability
[11]; methanol
  solubility: scarcely soluble
[11]; oil
  solubility: oil-soluble
[11]; water
  solubility: scarcely soluble
[12]
  effectiveness in radiation dermatitis or radiation ulcers: superb effectiveness
[13]
  damage of ischemic cardiac muscular tissue: reduce the damage
  percent oxygen utilization in heart muscle: improve the percent oxygen utilization in heart muscle
